From patent US20240261375A1, “PHARMACEUTICAL COMPOSITION FOR TREATING OR PREVENTING DISORDER ASSOCIATED WITH ADMINISTRATION OF ANTICANCER AGENT” (LTT BIO-PHARMA CO., LTD., priority 2021, published 2024)

Legend:
[1] = tested on: PC12 cells differentiated by NGF; test: Neurite retraction in NGF-differentiated PC12 cells caused by anticancer agents; format: cell-based, rat; details: 24 hours; for neurite retraction caused by oxaliplatin: oxaliplatin 20 μM
Experimental: Rat adrenal gland pheochromocytoma-derived PC12 cells are known to be differentiated into neuron-like cells having neurites by nerve growth factor (NGF) and are widely used as a nerve cell model. To assess the neurite-protective action of PC-SOD, the effect of PC-SOD in neurite disorder caused by various anticancer agents was analyzed by using PC12 cells differentiated by NGF.
PC12 cells were seeded on a 24-well plate coated with collagen at 5 000 cells/well. […] The images of cells were captured by using a microscope (BZ-X800, Keyence Corporation), and the neurite lengths were measured by using an image analysis software ImageJ (NIH).
(§1) PC12 cells were seeded on a 24-well plate coated with collagen at 5 000 cells/well. […] After neurite elongation, cells were cultured by using differentiation media each containing carboplatin (with a final concentration of 50 μM) alone or carboplatin and PC-SOD (with final concentrations of 10, 20, 50, and 100 μg/mL) for 24 hours. The images of cells were captured by using a microscope (BZ-X800, Keyence Corporation), and the neurite lengths were measured by using an image analysis software ImageJ (NIH).
as §1, with “containing paclitaxel (abbreviated as PTX in the figure of results) alone” for “containing carboplatin”, “of 0.1” for “of 50”, “μM)” for “μM) alone”, “or paclitaxel” for “or carboplatin”, “10,” for “10, 20,”

[2] = tested on: kidney of CIS-treated rats; test: Assessment of kidney disorder caused by cisplatin in rats; format: in vivo, rat; details: CIS 3 mg/kg i.p. 8 doses
Experimental: (§2) Six to eight-week-old male SD rats (from 200 to 400 g) were used. […] A total of eight doses were given with a regimen of twice weekly for four weeks (Days 1, 2, 7, 8, 13, 14, 19, and 20). A solvent for CIS, i.e., physiological saline, was similarly administered to a control group. […] Laboratory animals were divided into three groups: a control group, a CIS administration group, and a group receiving administration of CIS and PC-SOD 1 mg/kg (CIS+PC-SOD administration group) (n=6 per group).
For an experiment of prevention, PC-SOD was administered into the caudal vein from five to 15 minutes after CIS administration in the CIS+PC-SOD administration group. A total of eight doses were given with a regimen of twice weekly for four weeks (Days 1, 2, 7, 8, 13, 14, 19, and 20). A solvent for PC-SOD was similarly administered to the control group and the CIS administration group. The rat kidney weight was measured, and changes in the kidney weight were corrected with body weight. Further, a photograph of the kidney was taken to check changes in size and morphology of the kidney (Scale bar=10 mm).
For pathological analysis, a split was put in the sagittal plane of the collected kidney, and the kidney was fixed with 10% formalin to prepare a paraffin block by using Histos 5 (Milestone) and an embedding center (EG1160, Leica). The sample block was thinly sliced by using a microtome (MR2245, Leica) at a thickness of 3 μm to prepare a slide. The prepared slide was subjected to Periodic acid-Schiff (PAS) staining for assessment of clinical condition and Picrosirius Red staining for assessment of fibrosis. A fibrosis marker α-SMA was stained by an immunostaining method. […] Observation and assessment were performed by observing the whole section. Four to nine images of tissue on the cortical side on which the disorder was induced were randomly taken up, and inflammation, tubular necrosis, protein agglutination in renal tubules, vacuolation, and necrosis were assessed for changes in clinical condition. […] (Scale bar=500 μm (FIG. 11-1), Scale bar=200 μm (FIGS. 11-2 and 11-3)).

RAW cells = test: Active oxygen production in RAW cells (MitoSOX Red); format: cell-based; details: gemcitabine, oxaliplatin, cisplatin or carboplatin with simultaneous PC-SOD, 16 hours; FIG. 13-2
Experimental: RAW cells were seeded on a 96-well plate for fluorescence at 20 000 cells/well (D-MEM high glucose medium containing 10% inactivated FBS). […] Sixteen hours later, cells were treated with an HBSS solution containing dissolved MitoSOX™ Red Mitochondrial Superoxide Indicator (Invitrogen™) for 30 minutes, and the medium was replaced with D-MEM high glucose medium containing 1% inactivated FBS. Active oxygen production in mitochondria was determined by measuring fluorescence (Ex 510 nm, Em 580 nm) by using a plate reader (Infinite M Plex, Tecan). Cells for four wells were analyzed for each group.

[3] = tested on: peripheral blood cells of CIS-treated rats; test: Assessment of myelosuppression caused by cisplatin (peripheral blood cell count); format: in vivo, rat; details: CIS 3 mg/kg i.p. 8 doses, PC-SOD 1 mg/kg caudal vein, FIG. 14
Experimental: as §2, with “group). For an experiment of prevention, PC-SOD was administered into the caudal vein from five to 15 minutes after CIS administration in the CIS+PC-SOD administration group. A total of eight doses were given with a regimen of twice weekly for four weeks, (Days 1, 2, 7, 8, 13, 14, 19, and 20). A solvent for PC-SOD was similarly administered to the control group and the CIS administration group. Peripheral blood was collected from the rat caudal vein three days later, and peripheral blood was analyzed by using an automated blood cell counter (MEK-6458, Nihon Kohden Corporation).” for “group).”

lecithinized superoxide dismutase [PC-SOD]
neurite retraction caused by carboplatin ([1]; carboplatin 50 μM, PC-SOD 10, 20, 50, 100 μg/mL, FIG. 7-2): suppressed by simultaneous addition of PC-SOD dependently on the PC-SOD concentration | neurite retraction caused by cisplatin ([1]; cisplatin 33 μM, PC-SOD 10, 50, 100 μg/mL, FIG. 7-1): significantly suppressed as compared with addition of cisplatin alone | neurite retraction caused by oxaliplatin ([1]; PC-SOD 10, 50, 100 μg/mL, FIG. 7-1): markedly suppressed by simultaneous addition of PC-SOD dependently on the PC-SOD concentration | neurite retraction caused by oxaliplatin ([1]; test substance 50 μg/mL, FIG. 8): suppressed almost completely | neurite retraction caused by paclitaxel ([1]; paclitaxel 0.1 μM, PC-SOD 10, 50, 100 μg/mL, FIG. 7-3): suppressed by simultaneous addition of PC-SOD dependently on the PC-SOD concentration | increase in kidney weight and swelling of the kidney caused by CIS ([2]; PC-SOD 1 mg/kg caudal vein, FIG. 10-1, 10-2): the suppressive effect on an increase in the kidney weight and swelling of the kidney caused by CIS was confirmed | pathological damage to the kidney caused by CIS (PAS staining) ([2]; PC-SOD 1 mg/kg, FIG. 11-1): a suppressive effect on pathological damage to the kidney caused by CIS was observed | renal fibrosis caused by CIS (Picrosirius Red and α-SMA staining) ([2]; PC-SOD 1 mg/kg, FIG. 11-2, 11-3): decreases of fibrosis-positive regions in the kidney caused by CIS were detected | anticancer agent-dependent production of active oxygen in RAW cells (RAW cells): significantly suppressed the anticancer agent-dependent production of active oxygen dependently on the concentration of PC-SOD | decrease in platelets (PLTs) caused by CIS [3]: decreases in WBCs and PLTs were suppressed | decrease in white blood cells (WBCs) caused by CIS [3]: decreases in WBCs and PLTs were suppressed
